Legend:
Assay type in all cases: cell-based
[1] = test system: HuT-102; experiment: Cell proliferation and viability / apoptosis flow cytometry assay, HuT-102; settings: HuT-102 (TCL); 120 hours
Description: (§1) The following are examples of cell-based assays that can be used to determine the anti-proliferative activity and apoptotic effect of compounds described herein using exemplary hematological cell lines (Table 1). The in vitro growth inhibitory activity of Compound 1 described herein was evaluated using a 384-well flow cytometry assay.
(§2) The cell lines were plated under the conditions shown in Table 1 in 384-well flat bottom plates and incubated with increasing concentrations of compound ranging from 0.00015 to 10 μM or dimethyl sulfoxide (DMSO) control. The final concentration of DMSO was 0.1% (v/v). Following the addition of Compound 1 or DMSO and incubation for 120 hours, cell number and cell death were analyzed by flow cytometry (Attune®, Thermo Fisher) using Annexin V and the live-cell impermeant DNA dye, DRAQ7. […]
(§3) Flow cytometry data analysis was then performed using the Flow Jo_v10 software to determine the number of viable cells (Annexin V and DRAQ7 double negative staining cells) and percentage of apoptotic cells (Annexin V positive cells) for each condition. […] The IC50 (50% inhibitory concentration) and Emax (maximum efficacy achieved) values were then calculated by performing nonlinear regression curve fitting using log(inhibitor) vs. normalized response—variable slope analysis on GraphPad Prism 7.03. […]

[2] = test system: JJN-3; experiment: Cell proliferation and viability / apoptosis flow cytometry assay, JJN-3; settings: JJN-3 (MM, PCL); 120 hours
Description: as §1, §2, §3

[3] = test system: MDS-L; experiment: Cell proliferation and viability / apoptosis flow cytometry assay, MDS-L; settings: 120 hours
Description: as §1, §2, §3

[4] = test system: NCI-H929; experiment: Cell proliferation and viability / apoptosis flow cytometry assay, NCI-H929; settings: NCI-H929 (MM); 120 hours
Description: as §1, §2, §3

[5] = test system: BL-41; experiment: Cell proliferation and viability / apoptosis flow cytometry assay, BL-41; settings: 120 hours
Description: as §1, §2, §3

[6] = test system: SK-MM-1; experiment: Cell proliferation and viability / apoptosis flow cytometry assay, SK-MM-1; settings: SK-MM-1 (MM, PCL); 120 hours
Description: as §1, §2, §3

[7] = test system: L-363; experiment: Cell proliferation and viability / apoptosis flow cytometry assay, L-363; settings: L-363 (MM, PCL); 120 hours
Description: as §1, §2, §3

[8] = test system: HNT-34; experiment: Cell proliferation and viability / apoptosis flow cytometry assay, HNT-34; settings: HNT-34 (AML); 120 hours
Description: as §1, §2, §3

[9] = test system: SVSL/VL51; experiment: Cell proliferation and viability / apoptosis flow cytometry assay, SVSL; settings: SVSL (MZL, SMZL); 120 hours
Description: as §1, §2, §3

[10] = test system: L-591; experiment: Cell proliferation and viability / apoptosis flow cytometry assay, L-591; settings: L-591 (HL); 120 hours
Description: as §1, §2, §3

[11] = test system: OPM-2; experiment: Cell proliferation and viability / apoptosis flow cytometry assay, OPM-2; settings: OPM-2 (MM); 120 hours
Description: as §1, §2, §3

[12] = test system: Karpas-299; experiment: Cell proliferation and viability / apoptosis flow cytometry assay, Karpas-299; settings: Karpas-299 (TCL); 120 hours
Description: as §1, §2, §3

[13] = test system: L-428; experiment: Cell proliferation and viability / apoptosis flow cytometry assay, L-428; settings: L-428 (HL); 120 hours
Description: as §1, §2, §3

[14] = test system: Karpas-231; experiment: Cell proliferation and viability / apoptosis flow cytometry assay, Karpas-231; settings: Karpas-231 (ALL); 120 hours
Description: as §1, §2, §3

[15] = test system: Daudi; experiment: Cell proliferation and viability / apoptosis flow cytometry assay, Daudi; settings: Daudi (BL); 120 hours
Description: as §1, §2, §3

[16] = test system: KOPN-8; experiment: Cell proliferation and viability / apoptosis flow cytometry assay, KOPN-8; settings: KOPN-8 (ALL); 120 hours
Description: as §1, §2, §3

## O=C1CC[C@H](N2C(=O)c3cccc(NCc4ccc(CN5CC(N6CCOCC6)C5)cc4F)c3C2=O)C(=O)N1 [Compound 1, (S)-2-(2,6-dioxopiperidin-3-yl)-4-((2-fluoro-4-((3-morpholinoazetidin-1-yl)methyl)benzyl)amino)isoindoline-1,3-dione]
[1]
  % Viable Cells Emax (percentage of tumor cells remaining): 36.34%
[2]
  % Viable Cells Emax (percentage of tumor cells remaining): 21.6%
[3]
  % Viable Cells Emax (percentage of tumor cells remaining): 146.7%
[4]
  % Viable Cells Emax (percentage of tumor cells remaining): 6.1%
[5]
  % Viable Cells Emax (percentage of tumor cells remaining): 96.65%
[6]
  % Viable Cells Emax (percentage of tumor cells remaining): 3%
[7]
  % Viable Cells Emax (percentage of tumor cells remaining): 27.6%
[8]
  % Viable Cells Emax (percentage of tumor cells remaining): 20.47%
[9]
  % Viable Cells Emax (percentage of tumor cells remaining): 34.07%
[10]
  % Viable Cells Emax (percentage of tumor cells remaining): 34.6%
[11]
  % Viable Cells Emax (percentage of tumor cells remaining): 6.65%
[12]
  % Viable Cells Emax (percentage of tumor cells remaining): 8.43%
[13]
  % Viable Cells Emax (percentage of tumor cells remaining): 47.3%
[14]
  % Viable Cells Emax (percentage of tumor cells remaining): 0%
[15]
  % Viable Cells Emax (percentage of tumor cells remaining): 0%
[16]
  % Viable Cells Emax (percentage of tumor cells remaining): 38.3%

From patent US12178822B2, “Methods of treating hematological malignancies using 2-(2,6-dioxopiperidin-3-yl)-4-((2-fluoro-4-((3-morpholinoazetidin-1-yl)methyl)benzyl)amino)isoindoline-1,3-dion” (Celgene Corporation, priority 2019, dated 2024)
